# Reference: patent publication US11471478B2, “Use of cyclodextrins in diseases and disorders involving phospholipid dysregulation” (priority 2017, dated 2022)
# Where “and” joins values, the source holds several entries; their conditions need not be identical. Equal entries are not always repeated.
# Assays:
# rats [1] = conditions: s.c. single dose 0.100 g/kg; cited from earlier work
# [2] = cited from earlier work
# [3] = cited from earlier work; remark: listed apart in the source
# erythrocytes [4] = conditions: cited from earlier work; for IC50: read-out: hemolytic IC50
# erythrocytes [5] = conditions: cited from earlier work
# [6] = cited from earlier work; remark: listed apart in the source
# [7] = 2.1% α-CD added to Western diet; cited from earlier work
# [8] = cited from earlier work; remark: listed apart in the source
# [9] = tested on: fibroblasts of lysosomal storage diseases; conditions: about 6 mM α-CD, about 8 mM HP-β-CD; cited from earlier work
# rats [10] = conditions: cited from earlier work
# rats [11] = conditions: cited from earlier work; remark: listed apart in the source
# whole blood = conditions: cited from earlier work
# rats [12] = conditions: 1 g/kg daily; cited from earlier work
# mice/rats = conditions: in vivo; cited from earlier work
# BBB = conditions: cited from earlier work
# keratinocytes = conditions: cited from earlier work
# [13] = tested on: MDA-MB 231 and MCF-7 human breast epithelial cell lines; assay: Wound healing / gap closure migration assay; assay type: cell-based; conditions: for inhibition of migration, 1 mM HP-α-CD versus 2 mM HP-β-CD: MDA-MB-231 and MCF-7
# Protocol: Published results have shown that β-CD inhibits human MDA-MB 231 cell migration (Guerra F S, Sampaio LdS, et al. (2016) Translational Medicine Communications 1:3). This inhibition was attributed to the ability of β-CD to “deplete cholesterol”. β-CD, however, depletes also phospholipids. […] Cells were cultured in 24-well culture plates (Cytoselect CBA-120, 0.9 mm wound healing/gap closure migration assay) for 24 h with wound healing insert in place. Cells were then treated for 2 h with HP-β-CD, HP-α-CD, or control. Protocol: Warm up the 24-well plate (CBA-120, Cell BioLabs Inc.) with 0.9 mm CytoSelect Wound Healing Inserts at room temperature for 10 min. Using sterile forceps, orient the desired number of inserts in the plate wells with their “wound field” aligned in the same direction. […] Add 500 μL of cell suspension to each well by carefully inserting the pipette tip through the open end at the top of the insert. For optimal cell dispersion, add 250 μL of cell suspension to either side of the open ends at the top of the insert. Incubate cells in a cell culture incubator for 12-24 hours. Carefully remove the insert from the well to begin the wound healing assay. Use sterile forceps to grab and lift the insert slowly from the plate well. Slowly aspirate and discard the media from the wells. Wash wells with media to remove dead cells and debris. Finally, add media to wells to keep cells hydrated. Repeat wash if wells still have debris or unattached cells. When washing is complete, add media with FBS and/or compounds to continue cell culture and wound healing process. Agents that inhibit or stimulate cell migration can be added directly to the wells. Incubate cells in a cell culture incubator (2 hours) and then wash cells with PBS and then add fresh media without compounds. Incubate 12-24 hours before wash and fixing. Remove the fixation solution and add 400 μL of Cell Stain Solution to each well. Allow the stain to incubate with the cells for 15 minutes at room temperature. Aspirate and discard the solution. Carefully wash each stained well 3× with deionized water. Discard washes and allow cells to dry at room temperature. Cells that migrated into the wounded area or protruded from the border of the wound were visualized and photographed under an inverted microscope. Determine the surface area of the defined wound area: Total Surface Area=0.9 mm×length. Determine the surface area of the migrated cells into the wound area: Migrated Cell Surface Area=length of cell migration (mm)×2× length. Percent Closure (%)=Migrated Cell Surface Area/Total Surface Area×100 (see FIG. 36)
# [14] = tested on: MDA-MB-231 breast cancer cells; assay: NSG mice injected with human MDA-MB-231 breast cancer cells; assay type: in vivo
# Protocol: NSG mice (NOD.Cg-Prkdcscid Il2rgtm1Wjl/SzJ, strain #005557 (10 wk old) were obtained from Jackson Laboratories (Bar Harbor, Me.), housed in isolated quarters, and fed with autoclaved water and food.
# An MDA-MB-231 cell line was obtained (ATCC) and kept frozen in liquid nitrogen. Upon start of culture, cells were thawed (1.5 min in 37° C. water) and transferred to DMEM/F-12 supplemented with 5% FBS, 2 mM L-glutamine, 1 mM sodium pyruvate, and 0.02 mM non-essential amino acids. Cells were grown to several millions in 60 mm dishes at 70-80% confluence. Before injection, cells were briefly rinsed twice in PBS followed by Versene (EDTA, Invitrogen) and placed on ice with excess phosphate-buffered saline and phenol red-free matrigel basement membrane extract to a concentration of about 15 mg/mL matrigel. 100 μL cell mixture (20,000 cells or saline only) were injected into the lactiferous duct of the 3rd or 4th mammary glands under brief isofluorane anesthesia. Groups of 15 mice each were injected IP with 800 mg/kg of HP-α-CD, HP-β-CD per week (over four days, Mon, Tue, Thu, Fri), or saline (control) for six weeks. Size of the primary tumor was measured weekly.
# Breast tissue were palpated and measured twice a week with a micro-metric analytical device scaled to 1 mm precision. Mice were weighed weekly on a digital scale (0.1 g precision).
# At the end of the study period, mice were anaesthetized with isofluorane with 1× phosphate-buffered saline (PBS) and subsequently with 4% formaldehyde in PBS. Tissue from lung and liver were removed and fixated in formalin for microscopic examination. Metastases were visualized and counted by tissue embedding in paraffin and sectioning with immunohistochemistry and histological stain (H&E) and immunostained with anti-HLA antibody. After blocking for 1 h with BSA (5%, frac V), the anti-HLA was incubated at 4° C. overnight, washed for 1 h in PBS, then incubated with biotinylated anti-mouse IgG for 1 h at room temperature. After washing with PBS, metastases were detected on the slide using Envision (Dako).
# After blood collection, whole blood samples were centrifuged (at 10,000 m/s^2 for 15 min and then at 100,000 m/s^2 for 10 min), and plasma was isolated. The samples were stored at −80° C. until analysis.
# Prior to analysis (30 min), samples and assay reagents were equilibrated to room temperature. The samples were run at a 1:4 dilution and quantified in duplicate using a multi-plex mouse panel for quantification of IL-1β, IL-18, IL-6, IL-8, IL-17A, and GM-CSF (Bio-Plex Pro assays, Bio-Rad Laboratories) on a Luminex Bio-Plex 200 System (Bio-Rad Laboratories).
# HTT mice = HTT mice (R6/2), bodyweight; assay type: in vivo; conditions: 8 wk old HTT mice, over 5 wk
# From the text: (§1) ALS mice SOD1 G93A strain (B6SJL-Tg(SOD1*G93A)1Gur/J strain #002726, 10 wk old, and HTT mice (B6CBA-Tg(HDexon1)62Gpb/33; strain #006494 HTT: R6/2, 8 wk old), were obtained from Jackson Laboratories (Bar Harbor, Me.), housed in standard housing with controlled ambient conditions and provided with water and food at libitum.
# SOD1 mice = assay: ALS mice SOD1 G93A, bodyweight; assay type: in vivo; conditions: untreated mice began to lose bodyweight after 21 days
# From the text: as §1
# [15] = Randomized n-of-1 human PK/PD study: FPLC of morning urine after oral HP-α-CD preparations; conditions: in vivo
# Protocol: Urine samples (5-10 mL) were pipetted into culture tubes and then frozen for 30 min and samples were then lyophilized for 48-72 h, sealed and stored at −80° C. Phospholipids were extracted from urine samples after reconstitution, with chloroform (CHCl3) and methanol (3:1), and filtered through glass wool. The eluent was washed with 1 M KCl with 0.01% sodium azide. The wash was centrifuged at 3000 g for 30 min and CHCl3 layer transferred to fresh tube and evaporated at 60° C. under nitrogen. Phospholipid extracts and standards were digested in 10 M H2SO4 with 0.16 Ca(NO3)2 and 30% H2O2 and heated for 25 min at 180° C. […] These were vortexed and heated at 35° C. for 30 min. All samples were analyzed in triplicate.
# This was coupled to a Beckman Ultra SI column using an isocratic elution profile along a mobile phase of acetonitrile-methanol-phosphoric acid solvent (100:10:1.8) at a flow rate of 1.0 mL/min at RT. The lyophilized samples were resuspended in a hexane-propanol-phenolphthalene mix (3:1:0.1) before injection.
# The standard curves (FIG. 43) were generated using DiPalmitoyl-PC in the range of 0.65-32 μM phosphate equivalence. Percentage efficiency of isolation was determined through a comparison of the extraction recovery of total phosphate from normal urine spiked with known amount of synthetic PL with a parallel PL sample digested and assayed without extraction.
# SwN2a cells = conditions: cited from earlier work
# Npc1−/− mice = conditions: mouse, in vivo; cited from earlier work
# [16] = tested on: heterogeneous human epithelial colorectal adenocarcinoma (Caco-2) cells; conditions: cited from earlier work
# [17] = IP 800 mg/kg per week for six weeks
# [18] = u-statistics for multivariate data
molecule,measurement,setting,value
"OC[C@H]1O[C@@H]2O[C@H]3[C@H](O)[C@@H](O)[C@@H](O[C@H]4[C@H](O)[C@@H](O)[C@@H](O[C@H]5[C@H](O)[C@@H](O)[C@@H](O[C@H]6[C@H](O)[C@@H](O)[C@@H](O[C@H]7[C@H](O)[C@@H](O)[C@@H](O[C@H]1[C@H](O)[C@H]2O)O[C@@H]7CO)O[C@@H]6CO)O[C@@H]5CO)O[C@@H]4CO)O[C@@H]3CO [α-CD, alpha-cyclodextrin]",Nephrosis (light microscopy),rats [1],0.100 no changes
same,half-life (t1/2) after i.v. in rats,[2]; i.v.,25 min
same,oral absorption in rats,[2]; oral,2-3%
same,excreted after i.v. unchanged in urine,[3],~90%
same,hemolytic activity,erythrocytes [4]; comparison between cyclodextrins,lower than that of both β-CD and HP-β-CD
same,IC50,erythrocytes [4],16 mM
same,reduction of phospholipids,"erythrocytes [5]; 10 mM, FIG. 3",30%
same,extraction of cholesterol,erythrocytes [5],negligible even at hemolytic concentrations
same,found in urine within 6-8 h post oral administration,[6],1.6% and 2.0%
same,decrease of plasma phospholipids,[7],17.5%
same,"Permitted Daily Exposure (PDE) threshold, parenteral",[8]; CHMP 2014,0.02 mg/kg/day
same,"Permitted Daily Exposure (PDE) threshold, parenteral, revised","[8]; Oct. 9, 2017",200 mg/kg/day
same,reduction of lysosomal storage,[9],more effective in reducing lysosomal storage than about 8 mM HP-β-CD
same,LD50 with bolus i.v. injections,rats [10],1000 mg/kg
same,Nephrosis/Death,rats [11]; s.c. daily doses 0.100 g/kg,0.100 no nephrosis
same,Nephrosis,rats [11]; s.c. daily doses 1.000 g/kg,"1.000 all had severe nephrosis,"
same,Death,rats [11]; s.c. up to 7 daily doses of 1.000 g/kg,one rat died (after 2 days)
same,whole blood TD50,whole blood,11 mM/L
same,"i.v. toxicity, 1 g/kg daily",rats [12],1 died @ 2 d
same,LD50 i.v./i.p. in mice/rats,mice/rats,500 to 1000 mg/kg
same,Transport across BBB,"BBB; 2 h, 0.5 mM",21.5 (0.5 mM) %
same,toxicity on the BBB model,BBB,more toxic
same,caspase-dependent apoptotic cell death,keratinocytes,not
2-hydroxypropyl-alpha-cyclodextrin [HP-α-CD],"cell migration / wound closure, concentration dependence","[13]; 2 h treatment, MDA-MB 231 and MCF-7",migration decreased with higher concentration
same,"effect on migration, HP-α-CD versus HP-β-CD",[13]; MDA-MB 231 and MCF-7,stronger effect on migration than HP-β-CD
same,"effect on migration, HP-α-CD versus HP-β-CD","[13]; MDA-MB 231 and MCF-7, listed as HPαCD",twice as effective as HP-β-CD
same,"inhibition of migration, 1 mM HP-α-CD versus 2 mM HP-β-CD",[13],superior to inhibition at 2 mM HP-β-CD
same,"inhibition of migration, 1 mM HP-α-CD versus 2 mM HP-β-CD",[13]; listed as HPαCD,more effective than 2 mM HPβCD
same,"Tumor volume, median",[14]; [17],356 mm3
same,effect on tumor volume,[14]; [17],more effective than HP-β-CD
same,"plasma cytokines (IL-1β, IL-18, IL-6, IL-8, IL-17A, GM-CSF) versus Vehicle",[14]; conventional 0.05 level,not significant only in IL-6
same,mice that did not develop lung metastases,[14]; groups of 15 mice,5 mice
same,mice who died,[14]; groups of 15 mice,one
same,comprehensive analysis of all six plasma cytokine markers,[14]; [18],more effective than HP-β-CD
same,lung and liver metastases overall,[14]; [18],more effective
same,decline in bodyweight,HTT mice,reduced decline in bodyweight
same,bodyweight growth,SOD1 mice,continued to grow for at least two more weeks
same,"lysophospholipids in urine (fractions 9 and 10, LPC)",[15],higher than in all other groups
same,IC50,erythrocytes [4],> 100 mM
same,level of membrane cholesterol,SwN2a cells,reduced
same,levels of Aβ42,SwN2a cells,dramatically lowered
same,cholesterol accumulation,Npc1−/− mice,"reduces cholesterol accumulation, albeit not as effectively as HP-β-CD"
same,whole blood TD50,whole blood,360 mM/L
same,BBB breakdown,BBB,2.5 mM
same,toxicity on the BBB model,BBB,similarly safe
same,cytotoxicity,[16],less cytotoxic than α-CD
